Reference: paper PMC12829161 (BMC Microbiology, 2025)
Structures can show the parent of a compound that is named as a salt. Bridge positions count the residues as written; N and C are the ends. Square brackets hold non-standard residues; d marks the D form. Peptide text beside a SMILES is read from it. * marks the point of attachment. X1 = CC[C@H](C)CCCCC(=O)*; Dab = NCC[C@H](N)C(=O)O

Key:
Type in all cases: cell-based, Pseudomonas aeruginosa
[1] = tested on: PAO1 biofilm
[2] = tested on: PA14 biofilm
[3] = tested on: PA14 biofilm; remark: listed apart in the source
[4] = tested on: PAO1 biofilm; remark: listed apart in the source

## CC[C@H](C)CCCCC(=O)N[C@@H](CCN)C(=O)N[C@H](C(=O)N[C@@H](CCN)C(=O)N[C@H]1CCNC(=O)[C@H]([C@@H](C)O)NC(=O)[C@H](CCN)NC(=O)[C@H](CCN)NC(=O)[C@H](CC(C)C)NC(=O)[C@@H](Cc2ccccc2)NC(=O)[C@H](CCN)NC1=O)[C@@H](C)O [Polymyxin B, Polymyxin B sulfate] (X1-[Dab]T[Dab][Dab][Dab][dF]L[Dab][Dab]T; lactam 4-C (inferred); N-terminus assumed)
[1]
  Reduction of total growth (OD600) vs untreated control: at least 70%
[2]
  Reduction of total growth (OD600) vs untreated control: at least 70%
[3]
  Biofilm inhibition (CV) at sub-MICs and MICs vs untreated control: no significant biofilm inhibition
  Biofilm viability (TTC), % of untreated control: approximately 6 (±6) %
  Concentration at which total bacterial growth (OD600) is significantly inhibited: 2 µg/mL
  Increase in bacterial cells (total growth, OD600): No statistically significant increase
[4]
  Biofilm viability (TTC), % of untreated control: 65 (± 20) %
  Concentration at which total bacterial growth (OD600) is significantly inhibited: 4 µg/mL
  Increase in biofilm mass (CV) vs untreated control: over 200%
  Total bacterial growth (OD600), % of untreated control: approximately 170 (± 48) %
